These results are taken from patent EP0106793A1, “7-Alpha-alkyl-17-alpha-pregn-4-ene-21,17-carbolactones and -21-carboxylic acid salts and procedures for manufacturing them and pharmaceutical preparations containing them” (SCHERING AKTIENGESELLSCHAFT, priority 1982, dated 1984).

In this test the test system is aldosterone. In words: antialdosterone effect, experimental model by Hollmann. The test is classed as in vivo. Conditions: relative to spironolactone = 1. The protocol: The antialdosterone effect was determined and measured in an experimental model by Hallmann (G. Hollmann et al, Tubular Effects and Renal Elimination of Spirono- lactones, Naunyn-Schmiedebergs Arch. Exp. Path. Pharmak. 247 (1964), p 419; P. Marx, Renal Effects of d-aldosterone and Its Antagonist Spironolactone, Diss. Med. Fak. FU Berlin, 1966 whose disclosure is incorporated by references herein).

Consider `CC(=O)S[C@@H]1CC2=CC(=O)CC[C@]2(C)[C@H]2CC[C@@]3(C)[C@@H](CC[C@@]34CCC(=O)O4)[C@H]12` [spironolactone], for which the “relative values of the degree of antialdosterone effect” value came out at 1.
